Data published in publication PMC10778198, “First-in-Human Dose-Escalation Study of the Novel Oral Depsipeptide Class I-Targeting HDAC Inhibitor Bocodepsin (OKI-179) in Patients with Advanced Solid Tumors” (Cancers, 2023).

Test system: patients with advanced solid tumors
Assay: phase I dose escalation: safety, DLT, MTD, RP2D (CTCAE v. 5)
Type: in vivo
Details: 4:3
Description: Subsequent dosing cohorts were enrolled using a standard 3 + 3 design.
If any patient in any cohort of three patients developed a DLT during cycle 1, an additional three patients were recruited to expand the cohort to up to six evaluable patients. If two or more patients in any expanded cohort developed a DLT, this dose was considered non-tolerated, and dose escalation was discontinued. The MTD was defined as the highest dose level for which no more than one of six patients experienced a DLT.
Patients were continuously evaluated for adverse events throughout the study using the Common Terminology Criteria of Adverse Events (CTCAE v. 5). The patients underwent a clinical history and physical examination, an ECOG PS, a complete blood count (CBCs), chemistry, coagulation studies, urinalysis, a serum pregnancy test (as applicable), a triplicate ECG, an ophthalmology examination, and baseline tumor assessment at screening. During cycle 1, weekly history and physical examination, CBC, chemistry, coagulation parameters, urinalysis, and triplicate ECGs were performed; in subsequent cycles, weekly labs were limited to a CBC. Repeat ophthalmology examinations were performed at cycle 3, day 1, and at the end of treatment. Repeat tumor assessment was performed every 2 cycles (6 weeks) in accordance with RECIST 1.1.

## CC(C)[C@H](N)C(=O)SCC/C=C/[C@@H]1CC(=O)NCc2nc(cs2)C(=O)NC(C)(C)C(=O)N[C@@H](C(C)C)C(=O)O1 [OKI-179, Bocodepsin]
30 mg–210 mg (n = 8), G1
  TEAE: Anemia: 0 n (%)
  TEAE: Back pain: 1 (13) n (%)
  TEAE: Cough: 2 (25) n (%)
  TEAE: Decreased appetite: 3 (38) n (%)
  TEAE: Diarrhea: 5 (63) n (%)
  TEAE: Dyspnea: 2 (25) n (%)
  TEAE: ECG QT prolonged: 0 n (%)
  TEAE: Fatigue: 2 (25) n (%)
  TEAE: Headache: 2 (25) n (%)
  TEAE: Hypokalaemia: 1 (13) n (%)
  TEAE: Muscular weakness: 0 n (%)
  TEAE: Nasal congestion: 1 (13) n (%)
  TEAE: Nausea: 5 (63) n (%)
  TEAE: Platelet count decreased: 0 n (%)
  TEAE: Proteinuria: 0 n (%)
  TEAE: Pyrexia: 2 (25) n (%)
  TEAE: Vomiting: 4 (50) n (%)
  TEAE: Weight decreased: 1 (13) n (%)
30 mg–210 mg (n = 8), G2
  TEAE: Anemia: 2 (25) n (%)
  TEAE: Back pain: 0 n (%)
  TEAE: Cough: 1 (13) n (%)
  TEAE: Decreased appetite: 1 (13) n (%)
  TEAE: Diarrhea: 0 n (%)
  TEAE: Dyspnea: 0 n (%)
  TEAE: ECG QT prolonged: 0 n (%)
  TEAE: Fatigue: 1 (13) n (%)
  TEAE: Headache: 0 n (%)
  TEAE: Hypokalaemia: 0 n (%)
  TEAE: Muscular weakness: 1 (13) n (%)
  TEAE: Nausea: 0 n (%)
  TEAE: Platelet count decreased: 0 n (%)
  TEAE: Proteinuria: 0 n (%)
  TEAE: Pyrexia: 0 n (%)
  TEAE: Vomiting: 0 n (%)
  TEAE: Weight decreased: 1 (13) n (%)
30 mg–210 mg (n = 8), G3
  TEAE: Anemia: 2 (25) n (%)
  TEAE: Back pain: 0 n (%)
  TEAE: Cough: 0 n (%)
  TEAE: Decreased appetite: 0 n (%)
  TEAE: Diarrhea: 0 n (%)
  TEAE: Dyspnea: 0 n (%)
  TEAE: ECG QT prolonged: 1 (13) n (%)
  TEAE: Fatigue: 1 (13) n (%)
  TEAE: Headache: 0 n (%)
  TEAE: Hypokalaemia: 0 n (%)
  TEAE: Muscular weakness: 0 n (%)
  TEAE: Nausea: 0 n (%)
  TEAE: Platelet count decreased: 0 n (%)
  TEAE: Proteinuria: 0 n (%)
  TEAE: Pyrexia: 0 n (%)
  TEAE: Vomiting: 0 n (%)
  TEAE: Weight decreased: 0 n (%)
270 mg (n = 3), G1
  TEAE: Anemia: 0 n (%)
  TEAE: Back pain: 0 n (%)
  TEAE: Cough: 0 n (%)
  TEAE: Decreased appetite: 0 n (%)
  TEAE: Diarrhea: 0 n (%)
  TEAE: Dyspnea: 0 n (%)
  TEAE: ECG QT prolonged: 0 n (%)
  TEAE: Fatigue: 1 (33) n (%)
  TEAE: Headache: 0 n (%)
  TEAE: Hypokalaemia: 0 n (%)
  TEAE: Muscular weakness: 1 (33) n (%)
  TEAE: Nausea: 1 (33) n (%)
  TEAE: Platelet count decreased: 1 (33) n (%)
  TEAE: Proteinuria: 0 n (%)
  TEAE: Pyrexia: 0 n (%)
  TEAE: Vomiting: 0 n (%)
  TEAE: Weight decreased: 0 n (%)
270 mg (n = 3), G2
  TEAE: Anemia: 0 n (%)
  TEAE: Back pain: 0 n (%)
  TEAE: Cough: 0 n (%)
  TEAE: Decreased appetite: 0 n (%)
  TEAE: Diarrhea: 0 n (%)
  TEAE: Dyspnea: 0 n (%)
  TEAE: ECG QT prolonged: 0 n (%)
  TEAE: Fatigue: 1 (33) n (%)
  TEAE: Headache: 0 n (%)
  TEAE: Hypokalaemia: 0 n (%)
  TEAE: Muscular weakness: 0 n (%)
  TEAE: Nasal congestion: 0 n (%)
  TEAE: Nausea: 0 n (%)
  TEAE: Platelet count decreased: 0 n (%)
  TEAE: Proteinuria: 0 n (%)
  TEAE: Pyrexia: 0 n (%)
  TEAE: Vomiting: 0 n (%)
  TEAE: Weight decreased: 0 n (%)
270 mg (n = 3), G3
  TEAE: Anemia: 1 (33) n (%)
  TEAE: Back pain: 0 n (%)
  TEAE: Cough: 0 n (%)
  TEAE: Decreased appetite: 0 n (%)
  TEAE: Diarrhea: 0 n (%)
  TEAE: Dyspnea: 0 n (%)
  TEAE: ECG QT prolonged: 0 n (%)
  TEAE: Fatigue: 0 n (%)
  TEAE: Headache: 0 n (%)
  TEAE: Hypokalaemia: 0 n (%)
  TEAE: Muscular weakness: 0 n (%)
  TEAE: Nasal congestion: 0 n (%)
  TEAE: Nausea: 0 n (%)
  TEAE: Platelet count decreased: 0 n (%)
  TEAE: Proteinuria: 0 n (%)
  TEAE: Pyrexia: 1 (33) n (%)
  TEAE: Vomiting: 0 n (%)
  TEAE: Weight decreased: 0 n (%)
350 mg (n = 3), G1
  TEAE: Anemia: 1 (33) n (%)
  TEAE: Back pain: 0 n (%)
  TEAE: Cough: 0 n (%)
  TEAE: Decreased appetite: 0 n (%)
  TEAE: Diarrhea: 0 n (%)
  TEAE: Dyspnea: 1 (33) n (%)
  TEAE: ECG QT prolonged: 0 n (%)
  TEAE: Fatigue: 0 n (%)
  TEAE: Headache: 0 n (%)
  TEAE: Hypokalaemia: 0 n (%)
  TEAE: Muscular weakness: 0 n (%)
  TEAE: Nausea: 1 (33) n (%)
  TEAE: Platelet count decreased: 2 (67) n (%)
  TEAE: Proteinuria: 0 n (%)
  TEAE: Pyrexia: 0 n (%)
  TEAE: Vomiting: 0 n (%)
  TEAE: Weight decreased: 0 n (%)
350 mg (n = 3), G2
  TEAE: Anemia: 0 n (%)
  TEAE: Back pain: 0 n (%)
  TEAE: Cough: 0 n (%)
  TEAE: Decreased appetite: 1 (33) n (%)
  TEAE: Diarrhea: 0 n (%)
  TEAE: Dyspnea: 0 n (%)
  TEAE: ECG QT prolonged: 0 n (%)
  TEAE: Fatigue: 0 n (%)
  TEAE: Headache: 0 n (%)
  TEAE: Hypokalaemia: 1 (33) n (%)
  TEAE: Muscular weakness: 1 (33) n (%)
  TEAE: Nasal congestion: 0 n (%)
  TEAE: Nausea: 1 (33) n (%)
  TEAE: Platelet count decreased: 0 n (%)
  TEAE: Proteinuria: 0 n (%)
  TEAE: Pyrexia: 0 n (%)
  TEAE: Vomiting: 1 (33) n (%)
  TEAE: Weight decreased: 0 n (%)
350 mg (n = 3), G3
  TEAE: Anemia: 0 n (%)
  TEAE: Back pain: 1 (33) n (%)
  TEAE: Cough: 0 n (%)
  TEAE: Decreased appetite: 0 n (%)
  TEAE: Diarrhea: 0 n (%)
  TEAE: Dyspnea: 0 n (%)
  TEAE: ECG QT prolonged: 1 (33) n (%)
  TEAE: Fatigue: 1 (33) n (%)
  TEAE: Headache: 0 n (%)
